According to patent US6967196B1, “Sulfonamide compounds and uses thereof” (Bristol-Myers Squibb Company, priority 1999, dated 2005):
Read-outs that look alike come from different tables or passages of the source.

Test system: amyloid β production in transfected H4 (human neuroglioma) cells stably expressing APP constructs
Assay: In vitro cell-based assay of inhibitors of amyloid β production (ELISA)
Details: Homo sapiens, 16 h, approximately 16 hours incubation, amyloid β in medium by ELISA, read-out: ACTIVITY (IC50, inhibition of amyloid β production)
Summary of the method: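 Test agents are screened at 10-100 μM for about 16 hours on cells stably expressing wild-type or variant APP. Secreted Aβ is measured by ELISA and compared with control-treated cells.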

[1] = transfected H4 cells expressing APP

SMILES	IC50 (transfected H4 cells stably expressing APP constructs)	IC50 [1]
CCCC(c1cc(F)ccc1[C@@H](C)N(c1cc(F)ccc1F)S(=O)(=O)c1ccc(Cl)cc1)N1CCS(=O)(=O)C(C)C1 (stereo partly drawn) [Example 1278, (R)-4-Chloro-N-(2,5-difluorophenyl)-N-[1-[4-fluoro-2-[1-(1,1-dioxo-2-methyl-4-thiomorpholinyl)butyl]phenyl]ethyl]benzenesulfonamide]	≤ 25 nM	
CCNC(=O)OCC(C)N(c1cc(Cl)ccc1CO)S(=O)(=O)c1ccc(Cl)cc1 (stereo not drawn) [Example 1279]		≤ 25 nM
CNC(=O)OC[C@@H](C)N(c1cc(Cl)ccc1CO)S(=O)(=O)c1ccc(Cl)cc1 [Example 1280]		≤ 25 nM
CCCNC(=O)OC[C@@H](C)N(c1cc(Cl)ccc1CO)S(=O)(=O)c1ccc(Cl)cc1 [Example 1281]		≤ 25 nM
C[C@H](COC(=O)NC(C)(C)C)N(c1cc(Cl)ccc1CO)S(=O)(=O)c1ccc(Cl)cc1 [Example 1282]		≤ 25 nM
CCN(CC)C(=O)OC[C@@H](C)N(c1cc(Cl)ccc1CO)S(=O)(=O)c1ccc(Cl)cc1 [Example 1283]		≤ 25 nM
C[C@H](COC(=O)NC1CCCCC1)N(c1cc(Cl)ccc1CO)S(=O)(=O)c1ccc(Cl)cc1 [Example 1284]		≤ 25 nM
C[C@H](COC(=O)NCCCn1ccnc1)N(c1cc(Cl)ccc1CO)S(=O)(=O)c1ccc(Cl)cc1 [Example 1285]		≤ 25 nM
CC(C)NC(=O)OC[C@@H](C)N(c1cc(Cl)ccc1CO)S(=O)(=O)c1ccc(Cl)cc1 [Example 1286]		≤ 25 nM
C[C@H](COC(=O)N1CCCC1)N(c1cc(Cl)ccc1CO)S(=O)(=O)c1ccc(Cl)cc1 [Example 1287]		≤ 25 nM
CC(CCOC(=O)NCCCn1ccnc1)N(c1cc(Cl)ccc1CO)S(=O)(=O)c1ccc(Cl)cc1 (stereo not drawn) [Example 1289]		≤ 25 nM
C[C@H](CCCOC(=O)NCCCn1ccnc1)N(c1cc(Cl)ccc1CO)S(=O)(=O)c1ccc(Cl)cc1 [Example 1290]		> 500 nM
CC(CCOC(=O)NCCn1ccnc1)N(c1cc(Cl)ccc1CO)S(=O)(=O)c1ccc(Cl)cc1 (stereo not drawn) [Example 1291]		≤ 25 nM
C[C@H](CCCOC(=O)NCCn1ccnc1)N(c1cc(Cl)ccc1CO)S(=O)(=O)c1ccc(Cl)cc1 [Example 1292]		> 10000 nM
C[C@H](COC(=O)NCCn1ccnc1)N(c1cc(Cl)ccc1CO)S(=O)(=O)c1ccc(Cl)cc1 [Example 1293]		> 10000 nM
C[C@H](COC(=O)NCCCn1cnnn1)N(c1cc(Cl)ccc1F)S(=O)(=O)c1ccc(Cl)cc1 [Example 1294]		≤ 25 nM
C[C@H](COC(=O)NCCCn1ncnn1)N(c1cc(Cl)ccc1F)S(=O)(=O)c1ccc(Cl)cc1 [Example 1295]		≤ 25 nM
CCN(CCCn1ccnc1)C(=O)OC[C@@H](C)N(c1cc(Cl)ccc1CO)S(=O)(=O)c1ccc(Cl)cc1 [Example 1296]		> 10000 nM
C[C@H](CCCOC(=O)N(C)CCO)N(c1cc(Cl)ccc1CO)S(=O)(=O)c1ccc(Cl)cc1 [Example 1297]		≤ 25 nM
C[C@H](CCCOC(=O)N1CCCC1)N(c1cc(Cl)ccc1CO)S(=O)(=O)c1ccc(Cl)cc1 [Example 1298]		≤ 25 nM
CCCCNC(=O)[C@@H](C)N(c1cc(Cl)ccc1F)S(=O)(=O)c1ccc(Cl)cc1 [Example 1299]		100 to 500 nM
C[C@H](C(=O)NCc1ccco1)C(c1cc(Cl)ccc1F)S(=O)(=O)c1ccc(Cl)cc1 (stereo partly drawn) [Example 1300]		100 to 500 nM
C[C@H](C(=O)NCCN1CCOCC1)N(c1cc(Cl)ccc1F)S(=O)(=O)c1ccc(Cl)cc1 [Example 1301]		> 500 nM
C[C@H](C(=O)NCCC(c1ccccc1)c1ccccc1)N(c1cc(Cl)ccc1F)S(=O)(=O)c1ccc(Cl)cc1 [Example 1302]		> 500 nM
C[C@H](C(=O)NCC1CC1)C(c1cc(Cl)ccc1F)S(=O)(=O)c1ccc(Cl)cc1 (stereo partly drawn) [Example 1303]		100 to 500 nM
C[C@H](C(=O)NCCc1ccncc1)N(c1cc(Cl)ccc1F)S(=O)(=O)c1ccc(Cl)cc1 [Example 1304]		100 to 500 nM
C[C@H](C(=O)NCCc1ccc(Cl)cc1Cl)N(c1cc(Cl)ccc1F)S(=O)(=O)c1ccc(Cl)cc1 [Example 1305]		> 500 nM
